Data set [1] concerns A549 cells. Nature of the data set: Cell viability (MTT) assay, A549. It counts as cell-based, human. To be noted: 72 h. The method, then: (§1) The antiproliferative activity of the synthesized compounds was tested in cell viability assays optimally set up for various cancer cell lines (results are depicted in Table 2, n = 3, average IC50 (μM) ± SD).
Cells were plated at a density of 5 × 10^3 cells per well on 96-well plates. After 24 h of incubation (37 °C, 5% CO2), the cell medium was removed, and compounds were added at selected concentrations (0.1–100 μM), followed by incubation for 72 h. Control cells were treated with 0.4% DMSO medium to match the conditions in the wells where drugs were added. After 72 h, the medium was removed, and the 3-(4,5-dimethylthiazol-2-yl)-2,5-diphenyltetrazolium bromide (MTT) solution (0.3 mg/mL in PBS) was added to cells for 3 h under no light conditions. The MTT solution was removed, and the formazan crystals were dissolved in 100 μL of DMSO. The optical density was measured at 570 nm with a reference wavelength of 690 nm using an absorbance microplate reader (SpectraMax 190, Molecular Devices, Sunnyvale, CA, USA). The half-maximal inhibitory concentration (IC50) was calculated based on a four-parameter logistic equation, generating a cell viability curve, using GraphPad Prism 6.01 (GraphPad Software, Inc.). […] The resulting absorbance values were used instead of IC50 calculation. […]

Data set [2] relates to PC3 cells. Nature of the data set: Cell viability (MTT) assay, PC3. Particulars: for IC50: read-out: IC50 (antiproliferative effect). The data set is classed as cell-based, human. The procedure: as §1
(§2) Cells were plated at a density of 5 × 10^3 cells per well on 96-well plates. After 24 h of incubation (37 °C, 5% CO2), the cell medium was removed, and compounds were added at selected concentrations (0.1–100 μM), followed by incubation for 72 h. Control cells were treated with 0.4% DMSO medium to match the conditions in the wells where drugs were added. After 72 h, the medium was removed, and the 3-(4,5-dimethylthiazol-2-yl)-2,5-diphenyltetrazolium bromide (MTT) solution (0.3 mg/mL in PBS) was added to cells for 3 h under no light conditions. The MTT solution was removed, and the formazan crystals were dissolved in 100 μL of DMSO. The optical density was measured at 570 nm with a reference wavelength of 690 nm using an absorbance microplate reader (SpectraMax 190, Molecular Devices, Sunnyvale, CA, USA). The half-maximal inhibitory concentration (IC50) was calculated based on a four-parameter logistic equation, generating a cell viability curve, using GraphPad Prism 6.01 (GraphPad Software, Inc.). Two concentrations of an established drug, Docetaxel (100 nM and 1 nM), were used in each experiment as a positive control. The resulting absorbance values were used instead of IC50 calculation. Each point was the result of three independent experiments performed in triplicate.

In data set [3] the test system is SKBR3 cells. Nature of the data set: Cell uptake / intracellular concentration by LC-MS/MS, SKBR3. Particulars: SKBR3, 24 h incubation with 10 μM. The data set is classed as in vitro ADME, human. The method, then: (§3) Therefore, in order to better comprehend the observed activities of our degraders, following incubation of each compound with cells, the intracellular concentrations of the synthesized derivatives were evaluated in different cancer cell lines, as described previously.[28],[29] SKBR3, PC3, or A549 cells were incubated with PROTACs (at a 10 μΜ concentration) for selected time points, respectively. Upon sample treatment, compounds were extracted and analyzed by LC-MS/MS. Table 1 presents the percentage of the molecule that enters the cells after 24 h incubation at the 10 μM concentration. […] The small molecule MYCi361, used as a binding domain component of MYC, was also evaluated in the cell uptake assay (Table 1).
(§4) Cells were plated in 24-well plates at a density of 2 × 10^5 cells/well. 24 h after seeding, cells were incubated with each PROTAC (10 μΜ) for certain time points (1 h, 4 h, 8 h, and 24 h). The incubations were terminated at the selected time points by removing the medium and washing the cells twice with 1 mL cold PBS (1×) in each well in order to remove unbound PROTAC. Subsequently, the cells were lysed by adding a cold solution of ACN:H2O (3:2) and scraping off the cell monolayer. This process was done in two steps: first, 200 μL of ACN:H2O was added, the cells were scraped, and the cell lysate was collected. The second step involved the addition of an extra 100 μL of ACN:H2O, scraping, and collection of the remaining lysate. Samples were subsequently vortexed, sonicated, and centrifuged for 10 min at 13 000 rpm. The supernatants were collected, evaporated for 1 h at 55 °C, and stored at −20 °C until the day of analysis. Samples were then reconstituted in 200 μL of initial mobile phase (100% A), and the intracellular accumulation of PROTACs was determined by LC-MS/MS analysis using Warfarin as a stable internal standard and PROTAC standards for the construction of analytical standard curves.
(§5) The percentage of cell uptake was calculated as follows: [drawing 1]

Data set [4] has as its target T1, c-MYC (Homo sapiens, UniProt P01106).
T1 construct: endogenous in cells; host or cells: PC3
The data set can be described thus: MYC degradation in PC3 cells, Western blot. It counts as cell-based. To be noted: for MYC degradation (MYC levels by Western blot): 10 μΜ, 24 h. The procedure: The ability of novel compounds to induce MYC degradation in the PC3 cell line was evaluated via a Western blot-based assay. […] A PROTAC that effectively degrades bromodomain and extra-terminal (BET) family proteins, with indirect action on MYC levels, BETd-260, was also included in these experiments as a positive control. BETd-260 was tested at a lower concentration (1 μΜ) due to its high potency.[26]
PC3 cells were used for the determination of MYC levels after treatment with the PROTACs under study. Cells (at a density of 250 000 per well) were seeded in 6-well plates for 24 h until 60% confluence. During the 24-h incubation period, cells were treated with the tested compounds (10 μΜ) and BETd-260 (1 μΜ) that was used as a positive control. For rescue experiments, cells were pretreated with the inhibitor MG-132 for 2 h, and then, the medium was removed, followed by the addition of the selected compound. After the 24-h incubation period, a cell lysis protocol was performed. The medium was removed, and the cells were rinsed with cold PBS. Lysis was induced using RIPA lysis buffer (50 mM Tris-HCl at pH 7.5, 150 mM NaCl, 5 mM Na2EDTA, 1 mM EGTA, 0.1% SDS, 1% NP-40, 0.5% sodium deoxycholate, 8 mM sodium fluoride, and 1 mM sodium orthovanadate) and protease inhibitor cocktail (Roche, UK). Total protein concentration in lysate samples was determined via performance of the Bradford assay in bovine serum albumin (BSA). Standard and unknown samples were preformulated in Coomassie blue G-250 assay reagent (Thermo Fisher Scientific, MA, USA), followed by a readout at 595 nm. Separation of the protein isolated from PC3 lysates, respectively (10 μg), with NuPAGE sample reducing agent and NuPAGE LDS sample buffer (Invitrogen, UK), was achieved via SDS-PAGE electrophoresis at 110 V for 2 h, prior to overnight transfer to the polyvinylidene difluoride (PVDF) membrane. The membranes were then blocked in 5% nonfat dry milk in Tris-buffered saline with 0.1% Tween-20 (TBST-T) for 1 h at room temperature.
Detection of MYC in PC3 cells was accomplished via immunoblot of the POI with the indicated monoclonal antibody (Cell Signaling Technology, MA, USA, catalog number #5605) at 1:1000 in TBST at […] overnight. The secondary anti-rabbit peroxidase-conjugate antibody (Cell Signaling Technology, MA, USA, catalog number #7074) was further added at 1:2000 dilution, followed by 1-h incubation at room temperature. Chemiluminescent visualization of the MYC protein bands was performed after the addition of Immobilon Crescendo Western HRP substrate (Sigma-Aldrich, Munich, Germany). For normalization of MYC concentration, GAPDH was labeled using the specific rabbit monoclonal antibody (Cell Signaling Technology, MA, USA, catalog number #5174) at 1:20000 in 5% nonfat dry milk. Protein bands were quantified with the ImageJ software.

Data set [5] has as its system MYC:MAX complex. Nature of the data set: In vitro MYC-MAX binding assay (GST pull-down). The data set is classed as biochemical. To be noted: compound 150 μM. The method, then:
To assess whether the new degraders affect direct interaction of MYC with MAX, we employed a pull-down approach using recombinant proteins that correspond to the bHLHZ regions of MYC and MAX. GST-MYC, bound to glutathione sepharose beads, was incubated with the pyrazole compounds, followed by incubation with His-MAX. Finally, the complex of GST-MYC/HisMAX was eluted by the addition of excess glutathione, while the amount of the eluted complex was assessed by western blotting using anti-MAX antibodies (Figure 5).
Figure 5 Inhibition of the formation of the MYC:MAX complex by the pyrazole compounds. The indicated compounds (150 μM), or the solvent alone (DMSO, used as a control), were incubated with GST-MYC containing glutathione beads for 10 min at […], followed by incubation with His-MAX. […] The complex of GST-MYC:His-MAX was eluted by incubation of the beads with free glutathione. The amount of the eluted complex was analyzed by western blotting (presented in the inset), using anti-MAX antibodies, while the protein bands were quantified with the ImageJ software. The intensity of the bands is presented in the bar graph. […] Statistics were based on the unpaired two-tailed student’s t-test. Data are shown as mean ± SEM.
MYC–MAX complex formation assays were performed using recombinantly produced GST-MYC and His-MAX proteins, following the glutathione GST pull-down principle (Lentzaris et al., in preparation). In this assay, recombinant GST-MYC bound to glutathione beads was preincubated with the indicated compound or vehicle […]. As a negative control, empty beads, i.e., not loaded with GST-MYC, were used. The formed complex was eluted with glutathione, while the amount of bound MAX (indicating the amount of the generated complex) was assessed by Western blotting using anti-MAX antibodies (Abcam) and quantified based on the image J free software. All assays were carried out at least three independent times.

Data set [6] concerns SKBR3 cells. Nature of the data set: Cell viability (MTT) assay, SKBR3. The data set is classed as cell-based, human. The procedure:
as §1, §2

Data set [7] has as its system HCT116 cells. More on the design: method as in PMID 34838332. To be noted: HCT116 cells ref 13; read-out: GI50 (viability); cited from earlier work.
Data set [8] has as its system PSN1 cells. Also on record: method as in PMID 34838332. Particulars: PSN1 cells ref 13; read-out: GI50 (viability); cited from earlier work.
Data set [9] deals with PC3 cells. Nature of the data set: Cell uptake / intracellular concentration by LC-MS/MS, PC3. Particulars: PC3, 24 h incubation with 10 μM. It counts as in vitro ADME, human. The method, then: as §3, §4, §5

Where “and” joins values, the source holds several entries; their conditions need not be identical. Equal entries are not always repeated. Entries after “also recorded” stand apart in the source; their conditions may differ. Where two headings read alike, the source gives them in different places.

T1 sequence (P01106 whole entry): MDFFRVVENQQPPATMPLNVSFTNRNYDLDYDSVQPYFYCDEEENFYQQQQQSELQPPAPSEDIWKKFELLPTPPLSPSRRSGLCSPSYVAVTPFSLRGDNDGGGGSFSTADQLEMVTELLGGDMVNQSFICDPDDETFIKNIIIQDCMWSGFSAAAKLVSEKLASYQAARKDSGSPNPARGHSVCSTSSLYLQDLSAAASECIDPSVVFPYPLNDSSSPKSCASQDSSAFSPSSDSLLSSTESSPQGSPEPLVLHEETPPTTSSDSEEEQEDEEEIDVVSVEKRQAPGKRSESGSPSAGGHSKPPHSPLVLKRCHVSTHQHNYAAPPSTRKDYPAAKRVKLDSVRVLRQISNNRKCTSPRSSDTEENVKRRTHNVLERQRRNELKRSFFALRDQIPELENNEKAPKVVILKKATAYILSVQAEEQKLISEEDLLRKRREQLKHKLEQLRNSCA

For `Cc1ncsc1-c1ccc(CNC(=O)[C@@H]2C[C@@H](O)CN2C(=O)[C@@H](NC(=O)CNC(=O)CCC(=O)NCCCOc2ccc(-c3cc(C(F)(F)F)nn3C)c(O)c2-c2cc(C(F)(F)F)cc(C(F)(F)F)c2)C(C)(C)C)cc1` [CSI95], the “IC50 (antiproliferative effect)” value in [1] and in [2] (72 h) was “inactive” each time. This molecule also displayed an Uptake by cells in data set [3] of 16 ± 5%. The “MYC degradation (MYC levels by Western blot)” value in data set [4] is “No particular effect”.

As to `Cn1nc(C(F)(F)F)cc1-c1ccc(OCCCN)c(-c2cc(C(F)(F)F)cc(C(F)(F)F)c2)c1O.O=C(O)C(F)(F)F` [CSI118], the “inhibition of MYC:MAX complex formation (binding of His-MAX to GST-MYC)” value in data set [5] is “did not seem to interfere significantly; also recorded: no effect on MYC/MAX dimerization”.

Consider `Cc1ncsc1-c1ccc(CNC(=O)[C@@H]2C[C@H](O)CN2C(=O)[C@@H](NC(=O)CCCC(=O)NCCCOc2ccc(-c3cc(C(F)(F)F)nn3C)c(O)c2-c2cc(C(F)(F)F)cc(C(F)(F)F)c2)C(C)(C)C)cc1` [CSI212], for which the “IC50 (antiproliferative effect)” value in [6] (72 h) and in data set [2] (72 h) was “did not have any antiproliferative effect; also recorded: inactive” each time. For the same molecule, the “MYC degradation (MYC levels by Western blot)” value in data set [4] is “inactive”.

Consider `CCc1ccc(/C=C2/SC(=S)NC2=O)cc1` [Compound 10058-F4, reference compound], for which the IC50 in data set [2] (72 h) was 23 µM and 25 µM.

`CC(C)c1ccc(/C=C2\SC(=O)N(CCCCCCCCNC(=O)c3ccc4c(c3)C(=O)N(C3CCC(=O)NC3=O)C4=O)C2=O)cc1` (stereo not shown) [MDEG-541]: the GI50 in data set [7] is 14.3 µM; in [8], 10.7 µM.

For the molecule `Cn1nc(C(F)(F)F)cc1-c1ccc(OCc2ccc(Cl)cc2)c(-c2cc(C(F)(F)F)cc(C(F)(F)F)c2)c1O` [MYCi361, reference compound], the IC50 in [6] (Homo sapiens, SK-BR-3, 72 h, read-out: IC50 (antiproliferative effect)) was found to be 11 ± 4 µM; in data set [2] (Homo sapiens, PC-3, 72 h), 8 ± 1 µM. Moreover, the Uptake by cells is 28% and 28 ± 5% in data set [9]; 19% and 19 ± 1% in data set [3]. For the same molecule, the “concentration range in which MYC was degraded” value in [4] was 5–10 μΜ.

These data come from paper PMC11650737, “Developing MYC Degraders Bearing the Von Hippel–Lindau Ligand to Target the “Undruggable” MYC” (ACS Pharmacology & Translational Science, 2024).
